Measured values taken from patent US8420144B2, “Kokumi-imparting agent, method of using, and compositions containing same” (Ajinomoto Co., Inc., priority 2005, dated 2013).

Biological target: T1, human calcium receptor (Homo sapiens, UniProt P41180)
T1 construct: expressed in transfected cells; host or cells: Xenopus laevis oocytes microinjected with cRNA; gene amplified by PCR from human kidney cDNA (Clontech)
T1 sequence (P41180 20-1078): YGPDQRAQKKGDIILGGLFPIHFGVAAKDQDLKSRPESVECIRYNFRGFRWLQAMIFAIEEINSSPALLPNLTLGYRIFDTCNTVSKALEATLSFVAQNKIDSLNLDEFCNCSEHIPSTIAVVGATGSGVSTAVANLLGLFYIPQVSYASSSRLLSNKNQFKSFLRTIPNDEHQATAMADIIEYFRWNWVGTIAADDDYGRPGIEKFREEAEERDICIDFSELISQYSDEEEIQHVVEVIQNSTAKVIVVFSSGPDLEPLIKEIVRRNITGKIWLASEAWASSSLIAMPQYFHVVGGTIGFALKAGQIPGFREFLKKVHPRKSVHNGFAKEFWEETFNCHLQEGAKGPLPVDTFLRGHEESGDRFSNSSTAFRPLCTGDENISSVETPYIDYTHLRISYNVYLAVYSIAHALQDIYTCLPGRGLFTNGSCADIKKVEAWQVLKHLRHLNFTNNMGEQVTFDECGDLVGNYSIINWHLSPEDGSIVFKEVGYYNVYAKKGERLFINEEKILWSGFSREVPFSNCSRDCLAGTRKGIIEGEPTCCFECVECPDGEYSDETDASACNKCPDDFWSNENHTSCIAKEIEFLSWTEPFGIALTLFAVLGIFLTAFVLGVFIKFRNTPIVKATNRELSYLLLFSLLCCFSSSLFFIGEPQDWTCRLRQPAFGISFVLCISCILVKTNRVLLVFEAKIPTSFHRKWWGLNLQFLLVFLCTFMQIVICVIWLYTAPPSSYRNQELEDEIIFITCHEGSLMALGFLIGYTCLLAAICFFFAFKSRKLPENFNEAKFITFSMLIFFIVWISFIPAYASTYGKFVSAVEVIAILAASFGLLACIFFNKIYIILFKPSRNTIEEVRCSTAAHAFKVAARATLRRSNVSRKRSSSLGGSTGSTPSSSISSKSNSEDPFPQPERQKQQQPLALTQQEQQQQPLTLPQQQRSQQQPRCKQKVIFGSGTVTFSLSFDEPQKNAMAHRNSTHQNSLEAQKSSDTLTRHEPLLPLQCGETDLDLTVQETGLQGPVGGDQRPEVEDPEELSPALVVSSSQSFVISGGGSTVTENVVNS
Assay: Calcium receptor activation activity: Ca ion concentration-dependent Cl ionic current in Xenopus laevis oocyte expression system
Format: cell-based
Experimental: To evaluate calcium receptor activation activity, a Ca ion concentration-dependent Cl ionic current measuring method using a Xenopus laevis oocyte expression system was used. If each activator is added to Xenopus laevis oocytes expressing the calcium receptor, intracellular Ca ions increase. Then, the Ca ion concentration-dependent Cl channel opens, and the intracellular current value changes as an ionic current. By measuring the change in this intracellular current value, the presence or absence of calcium receptor activation activity can be determined.
Specifically, the abdomen of Xenopus laevis was opened, and an egg batch was taken out and treated with a 1% collagenase solution at 20° C. for 2 hours to obtain individual oocytes. Into the oocytes, 50 nl of 1 μg/μl receptor cRNA or 50 nl of sterilized water per oocyte was introduced by using a micro glass capillary, and the oocytes were cultured at 18° C. for 2 or 3 days. For the culture, a solution obtained by adding 2 mM pyruvic acid, 10 U/ml of penicillin, and 10 μg/ml of streptomycin to the solution in Example 2 was used. After the culture, a test solution was added to the oocytes containing either the cRNA or sterilized water. Electrophysiological measurement was performed by using an amplifier, Geneclamp500 (Axon), and recording software, AxoScope 9.0 (Axon). The oocytes were voltage-clamped at −70 mV by the double electrode voltage clamp method, and the intracellular current was measured via the Ca ion concentration-dependent Cl ion channel. The maximum value of the intracellular current was considered as the response current value.
Calcium receptor activation activity of L-amino acids was evaluated by using the method described in Example 13. That is, oocytes containing either cRNA of the calcium receptor or sterilized water were prepared, and voltage-clamped at −70 mV by the double electrode voltage clamp method. To the voltage-clamped oocytes, alanine (10 mM), arginine (10 mM), asparagine (10 mM), aspartic acid (10 mM), cysteine (10 mM), glutamine (10 mM), glutamic acid (10 mM), glycine (10 mM), histidine (10 mM), isoleucine (10 mM), leucine (10 mM), lysine (10 mM), methionine (10 mM), phenylalanine (10 mM), proline (10 mM), serine (10 mM), threonine (10 mM), tryptophan (10 mM), tyrosine (10 mM), valine (10 mM), ornithine (10 mM), taurine (10 mM), or hydroxyproline (10 mM) was added, and Ca ion concentration-dependent Cl response current was measured. […] As for the aforementioned amino acids, the activation activity was reported in Proc. Natl. Acad. Sci. USA, 2000 Apr. 25, 97(9):4814-9.
Calcium receptor activation activity of D-cysteine was evaluated by using the method described in Example 13. That is, oocytes containing either cRNA of the calcium receptor or sterilized water were prepared, and voltage-clamped at −70 mV by the double electrode voltage clamp method. To the voltage-clamped oocytes, D-cysteine (10 mM), L-cysteine (10 mM), D-tryptophan (10 mM), or L-tryptophan (10 mM) was added, and Ca ion concentration-dependent Cl response current was measured.
Calcium receptor activation activity of peptides was evaluated by using the method described in Example 13. That is, oocytes containing either cRNA of the calcium receptor or sterilized water were prepared, and voltage-clamped at −70 mV by the double electrode voltage clamp method.
Calcium receptor activation activity of peptides was evaluated in the same manner as that of Example 17. Each of the peptides shown in Table 2 was added to voltage-clamped oocytes at 1000 μM, 300 μM, 100 μM, 30 μM, 10 μM, 3 μM, 1 μM, 0.3 μM, and 0.1 μM, and Ca ion concentration-dependent Cl response current was measured.

Row | SMILES | Activity (lowest concentration for which current was detected) (added at 1000, 300, 100, 30, 10, 3, 1, 0.3 and 0.1 μM) [µM] | calcium receptor activation activity (Ca ion concentration-dependent Cl response current) (50 μM peptide, oocytes voltage-clamped at −70 mV)
1 | CC(C)[C@H](NC(=O)CC[C@H](N)C(=O)O)C(=O)NCC(=O)O [γ-Glu-Val-Gly] | 0.1 | 
2 | N[C@@H](CCC(=O)N[C@@H](CS)C(=O)NCC(=O)O)C(=O)O [γ-Glu-Cys-Gly, reference compound] |  | definitive calcium receptor activation activity
